Laboratory results from PMC4349585 (Journal of medicinal chemistry, 2015).

System: PC-3 cells
Assay: Cofilin phosphorylation Western blot in PC-3 cells stimulated by HGF
Format: cell-based
Details: 50 nM

Cc1c[nH]c2ncnc(-c3ccc(NC(=O)N(CCO)c4ccccc4)cc3)c12 [Compound 18b, 1-(2-Hydroxyethyl)-3-(4-(5-methyl-7H-pyrrolo[2,3-d]pyrimidin-4-yl)phenyl)-1-phenylurea]
inhibition of cofilin phosphorylation in PC-3 cells (Western blot): significant inhibition
